Measured values as given in article PMC4604124, “In Vitro Characterization of the Pharmacological Properties of the Anti-Cancer Chelator, Bp4eT, and Its Phase I Metabolites” (PLoS ONE, 2015).
Values joined by “and” are separate entries in the source; they are usually repeats but may differ in a detail not shown here. Equal entries are not always repeated.

Experiments:
[1] = system: 3T3 mouse embryo fibroblasts; experiment: MTT cytotoxicity assay, 3T3 cells; format: cell-based; details: for MTT viability (0 = 100): 3T3, 10 000 b/j, individual experiments
Summary of the method: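 Non-cancerous 3T3 mouse embryo fibroblasts were plated at 10,000 cells/well in 96-well plates and cultured for 24 h/37°C. The medium was then replaced with serum- and pyruvate-free DMEM for a further 24 h/37°C. Cells were exposed to agents for 72 h/37°C with 0.1% DMSO present, and viability was measured by MTT.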

[2] = Ascorbate oxidation assay (redox activity of iron complexes); format: biochemical;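 on %Fe 30min (ascorbate oxidation, Fe 100%), průměr: IBE 3 means excess free chelator over iron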;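 on %Fe 30min (ascorbate oxidation, Fe 100%): IBE 3 means excess free chelator over iron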;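 on %Fe 30min: ascorbate oxidation as % of the Fe control (Fe 100%): IBE 0.1 means iron-binding equivalents with iron in excess over chelator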;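 on Change of absorbance, odečet 0 (time 0 subtracted), čas 10, průměr: IBE 3 means excess free chelator over 10 µM FeCl3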;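 on Change of absorbance, odečet 0 (time 0 subtracted), čas 10: IBE 3 means excess free chelator over 10 µM FeCl3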
Method: The ascorbate oxidation assay was used to assess the redox activity of the iron complexes of the chelators using an established protocol. In brief, 100 μM ascorbic acid was prepared immediately prior to the experiment and incubated either alone or in the presence of 10 μM FeCl3 in a 50-fold molar excess (500 μM) of citrate and the chelators. Chelators were assayed at iron-binding equivalents (IBE) of 0.1 (excess of iron), 1 (fully coordinated iron—chelator complexes) and 3 (excess of free chelator). […] The decrease of absorbance between the two time points was calculated and expressed as a percentage of control without the chelator.

[3] = sheet IBE 1, time 10, replicates
[4] = sheet IBE 1, time 20, replicates
[5] = sheet IBE 1, time 30, replicates

CCNC(=O)NN=C(c1ccccc1)c1ccccn1 [E-Bp4eS, 2-benzoylpyridine 4-ethylsemicarbazone]
MTT viability (0 = 100) ([1]; koncentrace 100 μM): 89.4336 and 75.046 and 83.8477
MTT viability (0 = 100) ([1]; koncentrace 300 μM): 87.9502 and 69.8243 and 82.8158
MTT viability (0 = 100) ([1]; koncentrace 1000 μM): 61.3011 and 59.7855 and 71.6828
IC50 ([1]; Mus musculus, Fibroblast, 72 h, 3T3, 72 h/37°C, MTT, mean ± SD, n ≥ 4, read-out: IC50): > 1000 µM
%Fe 30min: ascorbate oxidation as % of the Fe control (Fe 100%) ([2]; IBE 0.1, 30 min, mean (průměr)): 110.6%
Change of absorbance after subtraction of time 0 (odečet 0) ([2]; IBE 0.1, time 10, mean (průměr)): -0.03606
Change of absorbance after subtraction of time 0 (odečet 0) ([2]; IBE 0.1, time 20, mean (průměr)): -0.07143
Change of absorbance after subtraction of time 0 (odečet 0) ([2]; IBE 0.1, time 30, mean (průměr)): -0.1048
Absorbance (ascorbate, λ = 265 nm) ([2]; IBE 0.1, čas 0 (time 0), mean (průměr)): 0.8403
Absorbance (ascorbate, λ = 265 nm) ([2]; IBE 0.1, čas 10 (time 10), mean (průměr)): 0.8042
Absorbance (ascorbate, λ = 265 nm) ([2]; IBE 0.1, čas 20 (time 20), mean (průměr)): 0.7689
Absorbance (ascorbate, λ = 265 nm) ([2]; IBE 0.1, čas 30 (time 30), mean (průměr)): 0.7355
Absorbance (ascorbate, λ = 265 nm) ([2]; IBE 0.1, čas 30 (time 30), single wells): 0.7395 and 0.7451 and 0.7441 and 0.7317 and 0.7361 and 0.735 and 0.7279 and 0.7282
%Fe 30min (ascorbate oxidation, Fe = 100%), průměr (mean) ([2]; sheet IBE 1, 30min, Fe 100%, mean): 115.7%
%Fe 30min (ascorbate oxidation, Fe = 100%), single replicates ([2]; sheet IBE 1, 30min, Fe 100%, replicates): 118.6% and 122% and 108.4% and 125.1% and 134.4% and 115.2% and 110.6% and 115.1% and 91.71%
raw reading at čas 0 (time 0), průměr (mean) ([2]; sheet IBE 1, time 0, mean of 9 readings): 0.822
raw reading at čas 0 (time 0), single replicates ([2]; sheet IBE 1, time 0, replicates of 2014-03-24 (two runs) and 2014-03-25): 0.8574 and 0.8322 and 0.8144 and 0.8238 and 0.8106 and 0.8047 and 0.8172 and 0.7979 and 0.8393
odečet 0 (reading minus time 0 reading) at čas 10, průměr (mean) ([2]; sheet IBE 1, time 10, mean): -0.03765
raw reading at čas 10 (time 10), průměr (mean) ([2]; sheet IBE 1, time 10, mean of 9 readings): 0.7843
odečet 0 (reading minus time 0 reading) at čas 10, single replicates [2, 3]: -0.03642 and -0.03472 and -0.03462 and -0.04217 and -0.04047 and -0.03637 and -0.03597 and -0.05027 and -0.02787
raw reading at čas 10 (time 10), single replicates [2, 3]: 0.778 and 0.7891 and 0.776 and 0.7626 and 0.7768 and 0.7616 and 0.8033 and 0.8071 and 0.8043
odečet 0 (reading minus time 0 reading) at čas 20, průměr (mean) ([2]; sheet IBE 1, time 20, mean): -0.07141
raw reading at čas 20 (time 20), průměr (mean) ([2]; sheet IBE 1, time 20, mean of 9 readings): 0.7506
odečet 0 (reading minus time 0 reading) at čas 20, single replicates [2, 4]: -0.07064 and -0.07124 and -0.06354 and -0.07877 and -0.08537 and -0.07037 and -0.07092 and -0.07622 and -0.05562
raw reading at čas 20 (time 20), single replicates [2, 4]: 0.7438 and 0.7526 and 0.7471 and 0.726 and 0.7319 and 0.7276 and 0.7684 and 0.7812 and 0.7766
odečet 0 (reading minus time 0 reading) at čas 30, průměr (mean) ([2]; sheet IBE 1, time 30, mean): -0.1028
raw reading at čas 30 (time 30), průměr (mean) ([2]; sheet IBE 1, time 30, mean of 9 readings): 0.7192
odečet 0 (reading minus time 0 reading) at čas 30, single replicates [2, 5]: -0.1024 and -0.1054 and -0.09363 and -0.1081 and -0.1161 and -0.09952 and -0.1043 and -0.1086 and -0.08655
raw reading at čas 30 (time 30), single replicates [2, 5]: 0.712 and 0.7184 and 0.717 and 0.6966 and 0.7011 and 0.6984 and 0.735 and 0.7488 and 0.7457
%Fe 30min (ascorbate oxidation, Fe 100%), průměr ([2]; sheet IBE 3, 30min, Fe alone = 100%, mean (průměr) of the 9 replicates): 117.9%
%Fe 30min (ascorbate oxidation, Fe 100%) ([2]; sheet IBE 3, 30min, Fe alone = 100%, single replicates): 124.2% and 115.8% and 108.1% and 126.9% and 132.9% and 126% and 114.7% and 109.6% and 103.1%
Change of absorbance, odečet 0 (time 0 subtracted), čas 10, průměr ([2]; sheet IBE 3, time 10 minus time 0, mean (průměr)): -0.04086
Change of absorbance, odečet 0 (time 0 subtracted), čas 10 ([2]; sheet IBE 3, time 10 minus time 0, single replicates): -0.04474 and -0.03234 and -0.03864 and -0.04417 and -0.05097 and -0.04457 and -0.03984 and -0.03894 and -0.03354
Change of absorbance, odečet 0 (time 0 subtracted), čas 20, průměr ([2]; sheet IBE 3, time 20 minus time 0, mean (průměr)): -0.076
Change of absorbance, odečet 0 (time 0 subtracted), čas 20 ([2]; sheet IBE 3, time 20 minus time 0, single replicates): -0.0807 and -0.0703 and -0.071 and -0.08341 and -0.08461 and -0.08331 and -0.07425 and -0.07045 and -0.06595
Change of absorbance, odečet 0 (time 0 subtracted), čas 30, průměr ([2]; sheet IBE 3, time 30 minus time 0, mean (průměr)): -0.109
Change of absorbance, odečet 0 (time 0 subtracted), čas 30 ([2]; sheet IBE 3, time 30 minus time 0, single replicates): -0.1153 and -0.1075 and -0.1003 (2×) and -0.1178 and -0.1233 and -0.1169 and -0.105 and -0.09439
